Experimental data published in patent EP0661266A1, “Substituted cyclic amine compounds as 5HT2 antagonists” (TOA EIYO LTD., priority 1993, dated 1995).
Structures can show the parent of a compound that is named as a salt. Where two headings read alike, the source gives them in different places.

Legend:
serotonin 2 receptor = target: T1, serotonin 2 receptor (Rattus norvegicus, UniProt P14842); test: Measurement of serotonin 2 receptor antagonistic activity (serotonin contraction of excised rat tail artery spiral specimen); format: cell-based; conditions: against the contraction of 3 x 10⁻⁶ serotonin, drug administered 10 minutes before cumulative serotonin, read-out: IC₅₀ value
T1 construct: A piece of wire was inserted into each of the thus excised blood vessels to prepare a spiral specimen; from tissue; host or cells: rat (Wistar-KY) abdominal side tail artery, spiral specimen
T1 sequence (P14842 whole entry): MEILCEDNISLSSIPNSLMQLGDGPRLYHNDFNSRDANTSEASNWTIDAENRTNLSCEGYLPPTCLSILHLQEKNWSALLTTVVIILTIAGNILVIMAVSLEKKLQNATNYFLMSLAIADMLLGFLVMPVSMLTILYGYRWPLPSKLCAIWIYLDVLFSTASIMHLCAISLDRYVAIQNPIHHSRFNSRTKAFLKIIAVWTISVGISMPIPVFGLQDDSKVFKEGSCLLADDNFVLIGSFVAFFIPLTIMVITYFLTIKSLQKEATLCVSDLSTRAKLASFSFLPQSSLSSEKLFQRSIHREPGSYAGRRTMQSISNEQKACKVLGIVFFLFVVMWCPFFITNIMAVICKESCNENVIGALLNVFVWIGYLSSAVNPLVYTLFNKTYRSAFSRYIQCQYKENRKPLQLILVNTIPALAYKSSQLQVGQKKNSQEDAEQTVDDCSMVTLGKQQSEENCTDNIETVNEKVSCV
Description: [Measurement of serotonin 2 receptor antagonistic activity]
Male rats of Wistar-KY line (body weight, approximately 220 to 370 g) were sacrificed and subjected to bloodletting to excise abdominal side tail arteries. A piece of wire was inserted into each of the thus excised blood vessels to prepare a spiral specimen (approximately 1.5 x 30 mm). The specimen was suspended in a Magnus tube (10 ml; Krebs-Hensereit solution) with a load of 500 mg at 37°C, and a gas mixture of 95% O₂ + CO₂ was passed through the tube. Tensile force was measured using a tension transducer (TB-621T, manufactured by Nippon Koden) and writing the data on an ink recorder (FBA-253A, manufactured by Toa Denpa) via a pressure amplifier (AP-621G, manufactured by Nippon Koden). After 1 hour of equilibration time, the specimen was contracted with 10⁻⁵ M of serotonin, washed and then subjected to cumulative administration of 10⁻⁸ to 3 x 10⁻⁵ M serotonin at intervals of 45 minutes to record the resulting contraction twice. The second recording was used as a control. Thereafter, each of the drugs to be tested was administered 10 minutes before the commencement of the cumulative administration to evaluate its serotonin antagonism. […] In the table, each result was indicated by "+" when the IC₅₀ value was 1.0 x 10⁻⁷ M or more, "++" when the value was 9.9 x 10⁻⁸ to 1.0 x 10⁻⁸ M and "+++" when the value was 9.9 x 10⁻⁹ M or smaller.

platelet aggregation = test: Measurement of platelet aggregation inhibition activity (5-HTP plus collagen induced aggregation of platelet rich plasma); format: cell-based; conditions: Oryctolagus cuniculus, rabbit PRP, 5-HTP final concentration 3 µM plus collagen in a concentration which alone does not cause aggregation, probit analysis, read-out: IC₅₀ value
Description: [Measurement of platelet aggregation inhibition activity]
Measurement of platelet aggregation was carried out using a platelet aggregation measuring apparatus NSB Hematracer 601.
Blood samples were collected from auricular arteries of male Japanese white rabbits (2 to 3 kg) using a syringe containing 1 volume of 3.8% sodium citrate per 9 volumes of blood and centrifuged at 900 rpm for 10 minutes. After collecting the resulting supernatant fluid as platelet rich plasma (PRP), the remaining lower layer was centrifuged at 3,000 rpm for 10 minutes to obtain platelet poor plasma (PPP). Platelets in the thus obtained PRP were counted using a microcell counter (Sysmex F-800, manufactured by Toa Iyo Denshi) and diluted with the PPP to a density of 30 x 10⁴/µl.
A 220 µl portion of PRP was mixed with 5 µl of 104 mM CaCl₂, incubated at 37°C for 1 minute and then mixed with 5 µl of a drug to be tested or physiological saline as a control. […] Activities to inhibit the aggregation reaction were measured to calculate 50% inhibition concentration (IC₅₀) by probit analysis, with the results shown in Table 2. In the table, each result was indicated by "+" when the IC₅₀ value was 1.0 x 10⁻⁶ M or more, "++" when the value was 9.9 x 10⁻⁷ to 1.0 x 10⁻⁷ M and "+++" when the value was 9.9 x 10⁻⁸ M or smaller.

[1] = tested on: 5-HTP-induced head-twitch; test: Measurement of activity to inhibit 5-HTP-induced head-twitch; format: in vivo, mouse; conditions: read-out: IC₅₀ value
Description: [Measurement of activity to inhibit 5-HTP-induced head-twitch]
To each ICR male mouse of 4 weeks of age were administered 300 mg/kg of 5-HTP by intraperitoneal injection (i.p.) and then 0.03 to 3 mg/kg of each test drug 25 minutes thereafter by intravenous injection, thereby counting the number of head-twitch induced after 5 minutes of the administration (for 20 minutes) and calculating the IC₅₀ value. In the table, each result was indicated by "+" when the IC₅₀ value was […] or more, "++" when the value was 100 to 999 mg/kg and "+++" when the value was 99 mg/kg or less.

`COc1cccc(CC(CCN2CCC(C(=O)c3ccc(F)cc3)CC2)c2ccccc2OC)c1` (stereo not drawn) [A, 4-(4-Fluorobenzoyl)-1-[3-(2-methoxyphenyl)-4-(3-methoxyphenyl)butyl]piperidine hydrochloride] gave an IC50 (serotonin 2 receptor) of 0.01 to 0.099 µM.
`COc1cccc(C(=O)N(CCN2CCC(C(=O)c3ccc(F)cc3)CC2)c2ccccc2OC)c1` [B, N-{2-[4-(4-Fluorobenzoyl)piperidino]ethyl}-3-methoxy-N-(2-methoxyphenyl)benzamide oxalate] gave an IC50 (serotonin 2 receptor) of 0.01 to 0.099 µM.
In the case of `COc1ccc(S(=O)(=O)N(CCN2CCC(C(=O)c3ccc(F)cc3)CC2)c2ccccc2OC)cc1` [C, N-{2-[4-(4-Fluorobenzoyl)piperidino]ethyl}-4-methoxy-N-(2-methoxyphenyl)benzenesulfonamide oxalate], the IC50 (platelet aggregation) is reported as ≥ 1 µM.
With `COc1ccc(S(=O)(=O)NC(=N)CCN2CCC(C(=O)c3ccc(F)cc3)CC2)cc1` [Compound I, 3-[4-(4-Fluorobenzoyl)piperidino]-N-(4-methoxybenzenesulfonyl)propionamidine oxalate] the IC50 (serotonin 2 receptor) was 0.01 to 0.099 µM.
Work on `COc1ccccc1N(CCN1CCC(C(=O)c2ccc(F)cc2)CC1)S(=O)(=O)c1ccc(F)cc1` [D, 4-Fluoro-N-{2-[4-(4-fluorobenzoyl)piperidino]ethyl}-N-(2-methoxyphenyl)benzenesulfonamide oxalate] yielded an IC50 (serotonin 2 receptor) of 0.01 to 0.099 µM.
`COc1ccc(S(=O)(=O)N(CCN2CCC(C(=O)c3ccc(F)cc3)CC2)C2CCCCC2)cc1` [E, N-Cyclohexyl-N-{2-[4-(4-fluorobenzoyl)piperidino]ethyl}-4-methoxybenzenesulfonamide oxalate] showed an IC50 (serotonin 2 receptor) of 0.01 to 0.099 µM.
`COc1ccccc1N(CCN1CCC(C(=O)c2ccc(F)cc2)CC1)S(=O)(=O)c1ccc(CO)cc1` [F, N-{2-[4-(4-Fluorobenzoyl)piperidino]ethyl}-4-hydroxymethyl-N-(2-methoxyphenyl)benzenesulfonamide oxalate] was tested, and the IC50 (serotonin 2 receptor) was < 0.0099 µM.
`COc1ccccc1N(CCN1CCC(C(=O)c2ccc(F)cc2)CC1)C(=O)c1ccc(CO)cc1.O=C(O)C(=O)O` [G, N-{2-[4-(4-Fluorobenzoyl)piperidino]ethyl}-4-hydroxymethyl-N-(2-methoxyphenyl)benzamide oxalate] was tested, and the ED50 ([1]; Mus musculus, iv) was < 99 mg/kg and the IC50 (platelet aggregation) was 0.1 to 0.99 µM.
`COc1ccccc1N(CCN1CCC(C(=O)c2ccc(F)cc2)CC1)C(=O)c1ccc(CN)cc1.O=C(O)C(=O)O` [H, 4-Aminomethyl-N-{2-[4-(4-fluorobenzoyl)piperidino]ethyl}-N-(2-methoxyphenyl)benzamide oxalate] was tested, and the ED50 ([1]; Mus musculus, iv) was > 1000 mg/kg, the IC50 (serotonin 2 receptor) was 0.01 to 0.099 µM and the IC50 (platelet aggregation) was 0.1 to 0.99 µM.
For `COc1cccc(N(CCN2CCC(C(=O)c3ccc(F)cc3)CC2)C(=O)c2ccc(NC(C)=O)cc2)c1.O=C(O)/C=C/C(=O)O` [J, 4-Acetylamino-N-{2-[4-(4-fluorobenzoyl)piperidino]ethyl}-N-(3-methoxyphenyl)benzamide fumarate], the ED50 ([1]; Mus musculus, iv) was 100 to 999 mg/kg, the IC50 (serotonin 2 receptor) was 0.01 to 0.099 µM and the IC50 (platelet aggregation) was < 0.099 µM.
`CC(=O)Nc1ccc(C(=O)N(CCN2CCC(C(=O)c3ccc(F)cc3)CC2)c2ccccc2)cc1` [K, 4-Acetylamino-N-{2-[4-(4-fluorobenzoyl)piperidino]ethyl}-N-(phenyl)benzamide fumarate] was tested, and the IC50 (serotonin 2 receptor) was 0.01 to 0.099 µM.
With `O=C(c1ccc(F)cc1)C1CCN(CCn2c(=O)[nH]c3ccccc3c2=O)CC1` [ketanserin, reference compound] the ED50 ([1]; ICR male mouse, 300 mg/kg 5-HTP i.p., test drug 0.03 to 3 mg/kg intravenous 25 minutes thereafter, head-twitch counted for 20 minutes) was < 99 mg/kg and the IC50 (platelet aggregation) was 0.1 to 0.99 µM.
